Reference: patent US20060105045A1, “Cyclodextrin solubilizers for liquid and semi-solid formulations” (priority 2004, published 2006)
Where a name gives a salt, the structure may show the parent alone.

Columns and labels:
[1] = Initial solubility screening of selected drugs in cyclodextrin derivative:water-miscible organic solvent stock solutions; assay type: physicochemical; conditions: for grams of stock solution required to solubilize the drug, Stock #2 / grams of stock solution required to solubilize the drug, Stock #3 / grams of stock solution required to solubilize the drug, Stock #1 / grams of stock solution required to solubilize the drug, Stock #5 / grams of stock solution required to solubilize the drug, Stock #6 / grams of stock solution required to solubilize the drug, Stock #4 / grams of stock solution required to solubilize the drug, Stock #7: 20-22 mg drug, raloxifene HCl + ca. 100 mg water, tamoxifen citrate + ca. 40 mg water; for grams of stock solution required to solubilize the drug, Stock #2 / grams of stock solution required to solubilize the drug, Stock #3 / grams of stock solution required to solubilize the drug, Stock #1: HBenβCD5.0 (30 wt %); for grams of stock solution required to solubilize the drug, Stock #2 / grams of stock solution required to solubilize the drug, Stock #3: PEG 400 (66.2 wt %); for grams of stock solution required to solubilize the drug, Stock #2: EtOH (3.8 wt %); for grams of stock solution required to solubilize the drug, Stock #3: PG (3.8 wt %); for grams of stock solution required to solubilize the drug, Stock #1: PEG 400 (70 wt %); for grams of stock solution required to solubilize the drug, Stock #5 / grams of stock solution required to solubilize the drug, Stock #6 / grams of stock solution required to solubilize the drug, Stock #4: HBenβCD6.6 (32 wt %); for grams of stock solution required to solubilize the drug, Stock #5 / grams of stock solution required to solubilize the drug, Stock #6: PEG 400 (64.6 wt %); for grams of stock solution required to solubilize the drug, Stock #5 / grams of stock solution required to solubilize the drug, Stock #7: EtOH (3.4 wt %); for grams of stock solution required to solubilize the drug, Stock #6: PG (3.4 wt %); for grams of stock solution required to solubilize the drug, Stock #4: PEG 400 (68 wt %); for grams of stock solution required to solubilize the drug, Stock #7: SulfoHBenCD (29 wt %), PEG 400 (67.6 wt %); for amount of stock solutions in which the drug was soluble: after mixing for ca. 48 h, all stock solutions
Method: In the following experiments, the water-miscible solvents were dried as described in example 1. The hydroxybutenyl-β-cyclodextrins (HBenβCD6.6 and HBenβCD5.0) and the sulfonated hydroxybutenyl-β-cyclodextrins (MSsulfonate=0.3, MSbutentyl=4.4) were carefully dried prior to use. The following stock solutions were prepared:
2. HBenβCD5.0 (30 wt %), PEG 400 (66.2 wt %), and EtOH (3.8 wt %)
7. SulfoHBenCD (29 wt %), PEG 400 (67.6 wt %), and EtOH (3.4 wt %)
Various drugs (20-22 mg) were weighed into different glass vials with screw caps. To each vial was added 1 gram (g) ±0.02 g of stock solution. The vial contents were mixed for ca. 48 h. Vials were inspected visually to determine whether the drugs were dissolved.

[2] = Pharmacokinetic study, oral bioavailability of tamoxifen:HBenBCD complexes; assay type: in vivo, Sprague-Dawley rats; conditions: male, Sprague-Dawley, rat, plasma, 10 mg/kg
Method: 7, 2005, concurrently with this application (no Serial assigned at this time). […] The solid complexes were dissolved in the appropriate amount of water for aqueous oral dosing of animals.
The study animal were male Sprague-Dawley rats. […] Each group was sub-divided into 4 groups of 3 animals on the basis of time of dosing (AM or PM) and diet (fed or fasted). In the case of fasted animals, food was removed 8 hours prior to dosing then returned 5 hours post-dose.
Blood samples (ca. 300 μL) were collected from each animal via the jugular or sublingual vein at 1, 2, 3, 4, 6, 12 and 24 hours post-dose. Plasma was separated and stored in 96 well plates at −17 to −80° C. until analysis. […] Plasma (100 μL) was precipitated with 250 μL of acetonitrile. After centrifugation, the supernatant was analyzed for tamoxifen, hydroxytamoxifen, and desmethyltamoxifen by reversed phase LC-MS-MS using diphenhydramine as an internal standard.
This oral suspension dose was given to fed animals in the AM.
The area under the plasma concentration-time curve (AUC) from time zero to 24 h (AUC0-24h) and from time zero to infinity (AUC0-∞) was calculated by standard methods (Clinical Pharmacokinetics, Malcolm Rowland and Thomas Tozer, Lippincott, Williams, & Wilkins, 1995). Oral bioavailability was determined using the AUC from the IV and oral doses adjusted for the animal dose.

| SMILES | grams of stock solution required to solubilize the drug, Stock #2 [1] [grams] | grams of stock solution required to solubilize the drug, Stock #3 [1] [grams] | grams of stock solution required to solubilize the drug, Stock #1 [1] [grams] | grams of stock solution required to solubilize the drug, Stock #5 [1] [grams] | grams of stock solution required to solubilize the drug, Stock #6 [1] [grams] | grams of stock solution required to solubilize the drug, Stock #4 [1] [grams] | grams of stock solution required to solubilize the drug, Stock #7 [1] [grams] | amount of stock solutions in which the drug was soluble [1] [g] | bioavailability [2] [%] |
| --- | --- | --- | --- | --- | --- | --- | --- | --- | --- |
| C=C1C[C@@H]2[C@H](CC[C@]3(C)C(=O)CC[C@@H]23)[C@@]2(C)C=CC(=O)C=C12 [Exemestane] | 1.5 | 1.5 | 1.5 | 1.5 | 1.5 | 1.5 | 1.5 | – | – |
| CC(C)(C#N)c1cc(Cn2cncn2)cc(C(C)(C)C#N)c1 [Anastrozole] | 1.0 | 1.0 | 1.0 | 1.0 | 1.0 | 1.0 | 1.0 | 1 | – |
| CC(=O)O[C@H]1C(=O)[C@@]2(C)[C@H]([C@H](OC(=O)c3ccccc3)[C@]3(O)C[C@H](OC(=O)[C@H](O)[C@@H](NC(=O)c4ccccc4)c4ccccc4)C(C)=C1C3(C)C)[C@]1(OC(C)=O)CO[C@@H]1C[C@@H]2O [Paclitaxel] | 1.0 | 1.0 | 1.0 | 1.0 | 1.0 | 1.0 | 1.0 | 1 | – |
| CC/C(=C(\c1ccccc1)c1ccc(OCCN(C)C)cc1)c1ccccc1 [Tamoxifen] | – | – | – | – | – | – | – | – | 5 |
| O=C(c1ccc(OCCN2CCCCC2)cc1)c1c(-c2ccc(O)cc2)sc2cc(O)ccc12 [Raloxifene HCL] | 1.4 | 1.6 | 1.5 | 1.6 | 1.6 | 1.6 | 1.1 | – | – |
